Laboratory results published in patent US20250032464A1, “SOLID DISPERSION, PREPARATION METHOD THEREFOR, AND SOLID FORMULATION CONTAINING SAME” (HAIHE BIOPHARMA CO., LTD., priority 2021, published 2025).
Read-outs that look alike come from different tables or passages of the source.

Columns and labels:
[1] = for Equilibrium solubility, 24 h: 37° C.
[2] = test system: Caco-2 cell model; conditions: for The ratio of apparent permeability: human
[3] = test system: P-gp; assay: in vitro; conditions: human, Caco-2
[4] = in vitro; conditions: human, Caco-2

in vivo bioavailability (after direct administration) | bioavailability (micronized compound A) | Equilibrium solubility, 24 h ([1]; Water) | solubility ([1]; media with different pH values) | Equilibrium solubility, 24 h ([1]; pH 1.2 simulated gastric fluid) | Equilibrium solubility, 24 h ([1]; pH 4.5 phosphate buffer solution) | Equilibrium solubility, 24 h ([1]; pH 6.8 simulated intestinal fluid) | permeability characteristic ([2]; Caco-2) | The ratio of apparent permeability ([2]; Caco-2, 2 μM) | The ratio of apparent permeability ([2]; Caco-2, 10 μM) | The ratio of apparent permeability ([2]; Caco-2, 50 μM) | efflux ratio [3] | Papp A→B [4] | Papp B→A [4] | SMILES
less than 1% | 3.3% | 0.1 µg/mL | less than 1 μg/mL | 0.5 µg/mL | 0.1 µg/mL | 0.1 µg/mL | high permeability characteristic | 1.21 | 2.27 | 0.64 |  |  |  | Cn1cc(-c2cnc3cnn(S(=O)(=O)c4cnc5ccc(-c6cnn(C)c6)cn45)c3c2)cn1 [Compound A, 1-{(6-[(1-methyl)-4-pyrazolyl]-imidazo[1,2-a]pyridine)-3-sulfonyl}-6-[(1-methyl)-4-pyrazolyl]-1-hydro-pyrazolo[4,3-b]pyridine]
 |  |  |  |  |  |  |  |  |  |  | 165 | 0.08 ± 0.01 ×10⁻⁶ cm/s | 12.5 ± 0.9 ×10⁻⁶ cm/s | C[C@H]1O[C@@H](O[C@H]2[C@@H](O)C[C@H](O[C@H]3[C@@H](O)C[C@H](O[C@H]4CC[C@@]5(C)[C@H](CC[C@@H]6[C@@H]5C[C@@H](O)[C@]5(C)[C@@H](C7=CC(=O)OC7)CC[C@]65O)C4)O[C@@H]3C)O[C@@H]2C)C[C@H](O)[C@@H]1O [Digoxin, digoxin]
 |  |  |  |  |  |  |  |  |  |  | 1.24 | 13.7 ± 0.67 ×10⁻⁶ cm/s | 17 ± 0.32 ×10⁻⁶ cm/s | CC(C)NCC(O)COc1cccc2ccccc12 (centres unmarked) [Propranolol, propranolol]
